Measurements: patent US8178688B2, “Benzamidine derivatives, process for the preparation thereof and pharmaceutical composition comprising the same” (Dong Wha Pharmaceutical Co., Ltd., priority 2004, dated 2012)
Where two headings read alike, the source gives them in different places.

What was measured:
[1] = test system: ovariectomized ddY mouse; experiment: Therapeutic effect in the ovariectomized osteoporetic mouse model (trabecular bone volume of the femur); assay type: in vivo, ddY mice; conditions: 50 mg/kg/day oral gavage for 4 weeks from 4 weeks after ovariectomy, salts (methansulfonic acid or HCl); for change in vivo at 50 mg/kg: Mus musculus, 672 h, read-out: Changes on TBV (% changes vs vehicle control)
Summary of the method: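 Female ddY mice, bilaterally ovariectomized; benzamidine salts (methanesulfonate or HCl) given orally at 50 mg/kg/day for 4 weeks, starting 4 weeks post-surgery. Femoral trabecular bone volume (%) measured histomorphometrically on H&E sections of trochlea epiphyseal region; reported as percentage change versus vehicle control.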

[2] = test system: osteoclast differentiation; experiment: Inhibitory effects on osteoclast differentiation (co-culture of bone marrow cells with osteoblast, TRAP staining); assay type: cell-based, mice; conditions: co-culture of bone marrow cells and osteoblast, 7 days, TRAP-positive osteoclasts versus controls; for inhibition at 1 µM: Mus musculus, Osteoclast, 168 h, read-out: % inhibitory activity on osteoclastogenesis
Summary of the method: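 Bone marrow cells from 6–8-week male ddY mice co-cultured with neonatal ICR mouse calvarial osteoblasts in α-MEM/FBS with dexamethasone (10^−7M) and vitamin D3 (10^−8M) for 7 days, compound and medium renewed every 2–3 days. TRAP-positive cells with ≥3 nuclei counted; inhibition given as percent of control.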

## CCCN(CCC)c1nc(-c2ccc(OCCCCCOc3ccc(C(=N)NO)cc3)cc2)c(CC)s1 [Example 138, N-hydroxy-4-(5-[4-(2-dipropylamino-5-ethyl-1,3-thiazol-4-yl)phenoxy]pentoxy)-benzamidine]
[1]
  change in vivo at 50 mg/kg: 164%
[2]; 1 m
  inhibition at 1 µM: 91%

## Cc1sc(-c2cccnc2)nc1-c1ccc(OCCCCCOc2ccc(C(=N)NO)cc2)cc1 [Example 13, N-hydroxy-4-(5-[4-(5-methyl-2-pyridin-3-yl-1,3-thiazol-4-yl)phenoxy]pentoxy)-benzamidine]
[1]
  change in vivo at 50 mg/kg: 82%
[2]; 1 μm
  inhibition at 1 µM: 73.5%

## CC(C)c1nc(-c2ccc(OCCCCCOc3ccc(C(=N)NO)cc3)cc2)c(CC2CCCC2)s1 [Example 47, N-hydroxy-4-(5-[4-(5-cyclopentylnnethyl-2-isopropyl-1,3-thiazol-4-yl)phenoxy]pentoxy)-benzamidine]
[1]
  Changes on TBV (% changes vs vehicle control): 139.8%
[2]; 1 μm
  % inhibitory activity on osteoclastogenesis: 90.0%
